Test results reported in patent US8039464B2, “Muscarinic antagonists with PARP and SIR modulating activity as agents for inflammatory diseases” (ProteoSys AG, priority 2004, dated 2011).
Like-named read-outs stand apart in the source and are kept apart here. Each block holds one compound with its values, some of them ahead of it.

How the values were obtained:
SIR-2 [1] = target: T1, SIR-2 (Mus musculus, UniProt Q923E4); assay: SIR2 activity assay (CycLex SIR2 Assay kit); assay type: biochemical, murine; conditions: control; read-out: IC50 SIR-2 inhibition
T1 construct: Using a raw extract from murine embryonic stem cells; host or cells: murine embryonic stem cells (raw extract)
T1 sequence (Q923E4 2-737 limits assumed): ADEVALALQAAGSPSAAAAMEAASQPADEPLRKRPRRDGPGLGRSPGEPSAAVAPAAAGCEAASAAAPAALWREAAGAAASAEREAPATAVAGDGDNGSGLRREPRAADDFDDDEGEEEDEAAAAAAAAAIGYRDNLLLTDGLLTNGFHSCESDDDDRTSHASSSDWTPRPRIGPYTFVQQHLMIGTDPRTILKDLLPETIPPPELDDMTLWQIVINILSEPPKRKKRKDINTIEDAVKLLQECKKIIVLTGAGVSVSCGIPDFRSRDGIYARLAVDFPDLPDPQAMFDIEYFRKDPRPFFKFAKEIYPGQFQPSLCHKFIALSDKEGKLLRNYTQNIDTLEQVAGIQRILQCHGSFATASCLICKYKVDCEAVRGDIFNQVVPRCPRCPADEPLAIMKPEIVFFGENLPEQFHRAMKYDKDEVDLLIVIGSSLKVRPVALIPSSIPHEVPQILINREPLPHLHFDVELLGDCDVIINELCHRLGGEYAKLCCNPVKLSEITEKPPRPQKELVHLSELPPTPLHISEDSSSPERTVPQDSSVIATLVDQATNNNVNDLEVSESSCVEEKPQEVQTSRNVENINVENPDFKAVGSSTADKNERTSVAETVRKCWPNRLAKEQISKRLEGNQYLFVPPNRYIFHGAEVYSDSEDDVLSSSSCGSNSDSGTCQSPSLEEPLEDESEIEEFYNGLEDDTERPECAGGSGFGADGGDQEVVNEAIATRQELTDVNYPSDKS
Text: For measurements of SIR2 activities, the quantitative test kit for NAD-dependent histone deacetylase activity CycLex® SIR2 Assay kit (Cat# CY-1151) was used according to instructions of manufacturer (CycLex Co., Ltd. 1063-103 Ohara, Tera-Sawaoka Ina, Nagano 396-0002 Japan). All substances tested in the SIR assay were cross-checked for their influence on the lysyl-endopeptidase. For this control an already deacetylated substrate peptide was used in order to measure directly lysyl-endopeptidase activity.
For measurements of SIR2 activities, the quantitative test kit for NAD-dependent histone deacetylase activity CycLex® SIR2 Assay kit (Cat# CY-1151) was used according to instructions of manufacturer (CycLex Co., Ltd. 1063-103 Ohara, Tera-Sawaoka Ina, Nagano 396-0002 Japan).

PARP-1 [2] = target: T2, PARP-1 (Homo sapiens, UniProt P09874); assay: PARP inhibition assay (R&D Systems, Cat. No. TA4669); assay type: biochemical; conditions: for IC50: R&D assay, recombinant monomeric PARP-1, read-out: IC50 PARP-1 inhibition
T2 construct: purchased R&D Systems TA4669
Text: A PARP inhibition assay from R&D Systems was used (Cat. No. TA4669) according to instructions of the supplier.
Under cellular conditions PARP-1 poly-ADP-ribosylates a host of nuclear proteins, including topoisomerase 1, 14-3-3 g and PARP-1 itself. Thus under cellular conditions, the self-modification of PARP-1 and dimerization are regulating its activity, moreover there is a tight interplay with PARG (poly-ADP-ribosyl-glycohydroxylase).

[3] = Blood-brain-barrier passage: HPLC of plasma and CSF; conditions: rat, in vivo
Text: J. Gastroenterol. 66, 35ff.; Homon et al., 1987, Therapeutic Drug Monitoring 9, 236ff.).

[4] = test system: D3 embryonic stem (ES) cells, neurons; assay: Cell culture model for chemical ischemia and neuroprotection (calcium imaging); assay type: cell-based, mice
Method: For all experiments, D3 embryonic stem (ES) cells derived from 129/sv mice [Okabe et al., 1996] were cultivated for 12 days, with passages on days 2, 4, 7 and 9 as described previously [Sommer et al., 2004]. Insult conditions: Cells (24-well plates) were pre-incubated with or without 20 nM EPO in fresh medium for 24 hours at 37° C. Cells were rinsed once with low K^+ solution (140 mM NaCl, 4.7 mM KCl, 1.2 mM KH2PO4, 2.5 mM CaCl2, 1.2 mM MgSO4, 11 mM glucose, 15 mM Hepes-NaOH, pH 7.35). Cells (either with or without EPO pre-incubation) were incubated for up to 45 min (37° C.) with either low K^+ solution or with glucose-free low K^+ solution supplemented with 1 mM KCN (chemical ischemia solution [Kume et al., 2002]). Vitality control to asses numbers of surviving neurons was performed by a brief stimulation with a low dose of glutamate (10 μM). Afterwards, cells were washed three times with ice cold phosphate buffered saline (PBS), and then proteins were harvested. Suspended cells were pelleted at 500×G, and lysed into 9M urea 4% CHAPS. The cell lysate was desalted with a NAP-10 column (Amersham Biosciences), preequilibrated with the same buffer, and protein content was determined.
Functional tests by calcium imaging were performed essentially as described [Sommer et al., 2004]. Briefly, cells were loaded with 2 μM of […] in DMEM for 45 min at 37° C. in the dark. Measurements of relative changes in [Ca^2+] were made on an inverted epifluorescence microscope (Olympus IX70 S1F2) with a Polychrom IV Monochromator (Xe-lamp, USHIO). Excitation wavelengths (λ1, λ2) and the emission wavelength were 340, 380 and 510 nm, respectively. Acquisition and analysis of data after appropriate stimulation were performed by using MetaFluor software (Universal Imaging Corporation). Image resolution was 168×129 pixels (binning 8×8, pixel size 6.8×6.8 μm). Only cells identified as neurons by morphological criteria and occasional immunostaining (not shown) and those whose calcium levels returned to the resting state after the first stimulation were taken into account. Controls included nominal zero calcium (negative) and 5 μM ionomycin (positive), 10 μM glutamate (positive) and depolarisation (55 mM K+) (positive). Pharmacological agents were applied by a multi-valve, single-output focal drug application device (ALA Scientific) with the perfusion system DAD-12. […] During each stimulation event 20 image pairs were acquired.

iNOS and Cox-2 = assay: Cox-2 and iNOS expression after LPS challenge (Western blot); assay type: cell-based; conditions: LPS 100 ng/ml for 60 min
Method: (§1) Cell pellets were further investigated by Western blot staining with anti Cox-2 and anti iNOS antibodies of 1D polyacrylamide gels.
(§2) Cell survival was assessed by Trypan Blue staining.

[5] = test system: neurally differentiated V56 embryonic stem cells; assay: LPS challenge, cell survival by Trypan Blue; assay type: cell-based; conditions: LPS 100 ng/ml for 60 min
Method: as §1, §2

A 549 cells = assay: LPS challenge, cell survival by Trypan Blue; assay type: cell-based; conditions: LPS 100 ng/ml for 60 min
Method: as §1, §2

[6] = test system: undifferentiated V56 embryonic stem cells; assay: LPS challenge, cell survival by Trypan Blue; assay type: cell-based; conditions: LPS 100 ng/ml for 60 min
Method: as §1, §2

3T3 fibroblasts = assay: LPS challenge, cell survival by Trypan Blue; assay type: cell-based; conditions: LPS 100 ng/ml for 60 min
Method: as §1, §2

PARP-1 [7] = assay: Affinity enrichment with irreversible pirenzepine affinity tag; assay type: binding, mice
Text: (§3) A reactive —SCN group is introduced which binds to lysines in or near the binding site of the compound. A biotinylated linker serves for enrichment of bound protein. The synthesis is described in detail co-pending US-application 60/588,354 and 60/620,323 which are herein incorporated by reference. In FIG. 1 a synthesis scheme is depcited. The final product, which was used as affinity reagent is thiocyanato 11-[2-(4-biocytinyl-piperazin-1-yl)-acetyl]-5,11-dihydro-benzo[e]pyrido[3,2-b][1,4]diazepin-6-one, (11).
(§4) The affinity reagent 11 was used to bind the target covalently from fractionations of crude cell extracts of D3 ES cells and other cell lines, subsequently the affinity purified material was analysed by 1D PAGE, immunostaining, and mass spectrometry.
The subsequent fractionation, isolation and further analysis was performed according to published standard procedures (Sommer et al. 2004). A commercial anti-PARP antibody was used for staining Western blots. Mass spectrometry for independent identification of pirenzepine-tagged proteins was performed as described elsewhere recently (Vogt et al., 2003, Cahill et al., 2003).
A surplus of affinity tag was removed by NAP10 gel filtration. The reaction mixture was bound to streptavidin agarose. Elution occurred with elution buffer (2% SDS, 62.5 mM Tris-pH 6.8) for 10 min at room temperature and 10 min at 95° C. […]

SIR-2 [8] = target: T3, SIR-2 (Mus musculus, UniProt Q923E4); assay: as above; assay type: binding
T3 construct: endogenous in cells; host or cells: V56 / D3 embryonic stem cells, raw extract
T3 sequence (Q923E4 1-737): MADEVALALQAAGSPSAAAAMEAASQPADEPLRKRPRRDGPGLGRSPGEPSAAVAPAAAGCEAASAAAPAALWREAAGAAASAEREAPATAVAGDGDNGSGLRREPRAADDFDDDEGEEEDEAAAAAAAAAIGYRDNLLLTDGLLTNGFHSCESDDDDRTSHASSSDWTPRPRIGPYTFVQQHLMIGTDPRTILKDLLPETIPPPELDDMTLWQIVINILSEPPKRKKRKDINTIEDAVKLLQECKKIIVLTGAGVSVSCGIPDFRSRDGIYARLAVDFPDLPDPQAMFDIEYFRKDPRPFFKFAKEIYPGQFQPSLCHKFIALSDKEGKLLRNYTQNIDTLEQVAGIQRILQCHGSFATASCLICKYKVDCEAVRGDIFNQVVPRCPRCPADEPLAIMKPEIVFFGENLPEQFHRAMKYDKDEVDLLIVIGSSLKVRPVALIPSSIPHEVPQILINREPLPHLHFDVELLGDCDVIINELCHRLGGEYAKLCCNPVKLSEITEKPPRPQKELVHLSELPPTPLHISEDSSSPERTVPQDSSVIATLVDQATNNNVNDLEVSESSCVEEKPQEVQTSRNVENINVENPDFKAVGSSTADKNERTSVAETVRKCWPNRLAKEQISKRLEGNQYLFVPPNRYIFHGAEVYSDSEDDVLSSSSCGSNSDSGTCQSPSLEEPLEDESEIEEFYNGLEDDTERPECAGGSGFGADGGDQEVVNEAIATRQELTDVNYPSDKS
Text: as §3, §4
For SIR-2 staining the following antibodies were used: primary Ab: A-SiR 2 (Upstate, biomol 07-131; Lot:22073); 1:5000 in 5% BSA/1×TBST; secondary Ab: A-Rabbit PE(A-0545) 1:1000 in 5% BSA/1×TBST: […]

T2 sequence (P09874 whole entry): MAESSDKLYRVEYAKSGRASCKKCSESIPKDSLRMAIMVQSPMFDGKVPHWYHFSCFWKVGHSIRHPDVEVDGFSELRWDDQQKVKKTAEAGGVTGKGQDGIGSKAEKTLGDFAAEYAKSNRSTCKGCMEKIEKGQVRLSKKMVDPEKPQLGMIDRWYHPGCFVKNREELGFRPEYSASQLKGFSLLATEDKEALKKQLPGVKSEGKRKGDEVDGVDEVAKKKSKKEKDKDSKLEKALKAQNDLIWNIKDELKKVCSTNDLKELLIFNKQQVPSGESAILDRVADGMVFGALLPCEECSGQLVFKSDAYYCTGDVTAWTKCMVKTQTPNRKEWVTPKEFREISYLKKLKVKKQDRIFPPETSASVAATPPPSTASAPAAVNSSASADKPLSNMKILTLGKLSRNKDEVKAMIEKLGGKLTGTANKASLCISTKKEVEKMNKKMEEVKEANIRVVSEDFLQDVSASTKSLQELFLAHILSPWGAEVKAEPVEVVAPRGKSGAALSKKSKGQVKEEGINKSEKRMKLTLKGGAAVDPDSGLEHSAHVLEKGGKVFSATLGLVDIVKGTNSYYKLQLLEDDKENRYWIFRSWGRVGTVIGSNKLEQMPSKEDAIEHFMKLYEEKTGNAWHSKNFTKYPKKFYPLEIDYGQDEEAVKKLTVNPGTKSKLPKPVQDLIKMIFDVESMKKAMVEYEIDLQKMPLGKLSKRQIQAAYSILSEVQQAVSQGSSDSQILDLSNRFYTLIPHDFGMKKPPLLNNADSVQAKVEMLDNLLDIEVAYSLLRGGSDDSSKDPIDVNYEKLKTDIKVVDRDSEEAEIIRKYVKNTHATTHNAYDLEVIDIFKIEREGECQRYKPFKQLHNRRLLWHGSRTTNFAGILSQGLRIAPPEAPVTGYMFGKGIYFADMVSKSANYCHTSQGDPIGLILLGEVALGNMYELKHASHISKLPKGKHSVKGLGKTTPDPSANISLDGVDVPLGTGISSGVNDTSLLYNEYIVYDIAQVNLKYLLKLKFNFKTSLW
Chain of PARP-1 (P11103 215-1013 limits assumed): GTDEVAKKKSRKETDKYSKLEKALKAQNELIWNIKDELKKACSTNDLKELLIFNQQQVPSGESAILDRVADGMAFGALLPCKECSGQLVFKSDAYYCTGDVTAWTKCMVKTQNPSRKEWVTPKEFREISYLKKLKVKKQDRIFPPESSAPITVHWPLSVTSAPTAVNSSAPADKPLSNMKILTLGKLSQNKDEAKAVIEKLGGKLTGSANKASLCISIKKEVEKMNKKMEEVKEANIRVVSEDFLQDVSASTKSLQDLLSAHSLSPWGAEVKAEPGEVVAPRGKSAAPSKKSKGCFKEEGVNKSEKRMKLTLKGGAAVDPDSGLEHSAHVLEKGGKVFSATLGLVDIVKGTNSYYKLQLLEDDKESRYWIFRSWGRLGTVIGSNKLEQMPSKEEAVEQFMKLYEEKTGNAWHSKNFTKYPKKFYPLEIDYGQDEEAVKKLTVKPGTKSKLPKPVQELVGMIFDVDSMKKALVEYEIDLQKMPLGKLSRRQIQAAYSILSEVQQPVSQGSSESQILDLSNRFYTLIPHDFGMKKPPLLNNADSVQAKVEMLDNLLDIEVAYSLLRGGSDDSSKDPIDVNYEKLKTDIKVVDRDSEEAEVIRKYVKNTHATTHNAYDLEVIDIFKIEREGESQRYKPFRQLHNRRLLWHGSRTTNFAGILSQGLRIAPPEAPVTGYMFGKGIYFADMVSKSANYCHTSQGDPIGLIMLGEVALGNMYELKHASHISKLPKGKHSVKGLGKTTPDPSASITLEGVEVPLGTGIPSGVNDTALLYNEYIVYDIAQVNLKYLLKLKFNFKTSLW

Compound: NC(=O)c1cccnc1 [nicotine amide, reference compound]
IC50 (SIR-2 [1]): ~55 µM

IC50 (PARP-1 [2]): 7 µM
Compound: O=c1[nH]c2ccccc2c2ccccc12 [phenanthridone, reference compound]

passage into the brain [3]: virtually no passage
Compound: O=C1Nc2cccnc2N(C(=O)CN2CCNCC2)c2ccccc21 [dm-Pirenzepine, desmethyl-Pirenzepine]

Compound: CN1CCN(CC(=O)N2c3ccccc3C(=O)Nc3cccnc32)CC1 [Pirenzepine, 5,11-dihydro-11[(4-methyl-1-piperazinyl)-acetyl]-6H-pyrido-[2,3-b]-[1,4]benzodiazepine-6-one, reference compound]
neuroprotective in vitro effect ([4]; 1 μM, chemical ischemia): prevents neuronal death | survival rate ([4]; after chemical ischemia, 1 μM Pirenzepine (FIG. 2b)): 72.1±4.4% | neuroprotective effect under raft-disrupting conditions ([4]; β-methyl-cyclodextrin or filipin): does not occur | expression of inducible inflammatory markers iNOS and Cox-2 (iNOS and Cox-2): decreased expression | PARP-1 inhibition (in words) (PARP-1 [2]): rather weak PARP-1 inhibitor | IC50 (PARP-1 [2]): 200 µM | protection from LPS challenge [5]: protect | protection from LPS challenge (A 549 cells): protect | protection from LPS challenge [6]: protect | protection from LPS challenge (3T3 fibroblasts): protect

Compound: thiocyanato 11-[2-(4-biocytinyl-piperazin-1-yl)-acetyl]-5,11-dihydro-benzo[e]pyrido[3,2-b][1,4]diazepin-6-one [pirenzepine-affinity tag]
interaction with PARP-1 (PARP-1 [7]): interacts | binding to SIR-2 (SIR-2 [8]): irreversibly binds | binding to SIR-2 (SIR-2 [8]; listed as affinity tag): interacts
